What was measured:
[1] = test system: BaF3 cells expressing EGFR L858R-L718Q; assay: Ba/F3 EGFR cell viability (CellTiter-Glo), L858R-L718Q; assay type: cell-based; details: Mus musculus, read-out: CTGlo (GI50)
Source text: RPMI 1640 media, cell culture flasks, and 384-well microplates were purchased from VWR (Radnor, PA, USA). Fetal bovine serum (FBS) was purchased from Life Technologies (Carlsbad, CA, USA) and CellTiter-Glo® was purchased from Promega (Madison, WI, USA). The Ba/F3 parental cell line was purchased from CrownBio (Santa Clara, CA). BaF3 cell lines ectopically expressing the EGFR mutations L858R, L858R-T790M, L858R-C797S, and L858R-T790M-C797S were purchased from CrownBio and EGFR mutations L858R-L718Q, L858R-T790M-L718Q, L858R-L792H, and L858R-T790M-L792H, were purchased from Signosis (Santa Clara, CA).
Cell viability was assessed based on the quantification of ATP using the CellTiter-Glo® assay (Promega, Madison, WI, USA). To determine the effect of compounds on cell viability, all Ba/F3 cell lines were plated at a cell density of 2000 cells/well in 384-well plates using RPMI 1640+10% FBS and treated with compounds of interest using a 10-point half-log dilution series in duplicate for 72 hours, with the highest dose set at […]. CellTiter-Glo® reagent was then added and luminescence signals were measured using an EnVision™ Multimode plate reader (Perkin Elmer, Santa Clara, CA). For data normalization, cells untreated with the test compounds at Time=72 hours were set to 100% (equivalent to maximal cell growth after 72 hours); cells untreated with the test compounds at Time=0 hours were set to 0% (equivalent to cytostasis); and media-only wells were set to −100% (equivalent to complete cytotoxicity). % Viability was determined by normalizing the signal with positive and DMSO treated negative controls on the same microtiter plate. The half-maximal inhibition of cell growth (GI50) is computed from where the fitted curve crosses 50% while the half-maximal lethal dose (LD50) is computed from where the fitted curve crosses −50%.

[2] = biological target: T1, mutant EGFR-L858R-T790M (Homo sapiens, UniProt P00533, L858R/T790M); assay: Mutant EGFR protein in NCI-H1975 tumors after single oral dose (western blot); assay type: in vivo, female BALB/c nude mice
T1 construct: female BALB/c nude mice bearing NCI-H1975 NSCLC tumors; from tissue; host or cells: NCI-H1975 subcutaneous xenograft tumours from female BALB/c nude mice
Protocol: (§1) Compound 1 was administered as a single oral (PO) dose at 10, 25, or 50 mg/kg to female BALB/c nude mice with NCI-H1975 tumors. At 4h, 6h or 12h tumors were harvested and the protein expression of mutant EGFR-L858R and phospho-EGFR was measured by western blot.
(§2) A xenograft study was conducted in female BALB/c nude mice bearing NCI-H1975 NSCLC tumors. Female nude mice were inoculated subcutaneously in the right flank with 5×10^6 tumors cells in 0.1 mL of PBS. Tumor volume was measured twice weekly in two dimensions using calipers, and volume (mm^3) was calculated using the formula: V=0.5 a×b2 where a and b are the long and short diameters of the tumor in mm, respectively. […]
(§3) All agents were administered to mice bearing NCI-H1975 tumors on day 0 as a single oral (PO) dose. […] Protein concentration was quantified using a Pierce™ BCA Protein Assay Kit, samples were reduced, and equal protein amounts were then loaded onto a western blot gel for analysis. Tumors were analyzed for EGFR Receptor L858R Mutant Specific (CST, 3197) or Phospho-EGFR Receptor Tyr1068 (CST, 2234) expression. The intensity of individual bands was measured for data analysis using Image Studio software. Protein expression was quantitated in relation to the reference protein, alpha-tubulin, to control for total protein concentration. […]

[3] = biological target: T2, Phospho-EGFR Receptor Tyr1068 (Homo sapiens, UniProt P00533, L858R/T790M); assay: Phospho-EGFR in NCI-H1975 tumors after single oral dose (western blot); assay type: in vivo, female BALB/c nude mice
T2 construct: female BALB/c nude mice bearing NCI-H1975 NSCLC tumors; from tissue; host or cells: NCI-H1975 subcutaneous xenograft tumours from female BALB/c nude mice
Protocol: as §1, §2, §3

[4] = biological target: EGFR L858R (Homo sapiens, UniProt P00533, L858R); assay: Western blot NCI-H3255, Compound 1 with or without osimertinib: EGFR-L858R; assay type: cell-based; details: NCI-H3255, six hours, 0-1,500 nM, presence and absence of 1,500 nM osimertinib
Source text: (§4) The compound bearing solutions were formulated to achieve a 0.1% final concentration of DMSO. […] Antibodies used in western blot were purchased from the following vendors: EGFR-L858R specific antibody (CST 3197), pY1068 EGFR (CST 2234), pERK (CST 4370), ERK (CST 4695), vinculin (Millipore 05-386).

[5] = biological target: T3, pY1068 EGFR (Homo sapiens, UniProt P00533, L858R); assay: Western blot NCI-H3255, Compound 1 with or without osimertinib: phospho-EGFR; assay type: cell-based; details: NCI-H3255, six hours, 0-1,500 nM, presence and absence of 1,500 nM osimertinib
T3 construct: NCI-H3255 (harboring EGFR heterozygous L858R mutation); host or cells: NCI-H3255
Source text: as §4

[6] = after a single oral dose, NCI-H1975 tumors
[7] = single PO dose 10, 25 or 50 mg/kg, 4, 6 and 12 hours

## O=C1CC[C@H](Nc2ccc(N3CCC(O)(CC(=O)N4CC5(C4)CN(c4ccc(-c6cc(F)c7c(c6)C(=O)N(C(C(=O)Nc6nccs6)c6ncn8c6CCC8)C7)cc4)C5)CC3)c(F)c2)C(=O)N1 (stereo partly drawn) [Compound 1, 2-(6,7-dihydro-5H-pyrrolo[1,2-c]imidazol-1-yl)-2-[6-[4-[2-[2-[1-[4-[[(3S)-2,6-dioxo-3-piperidyl]amino]-2-fluoro-phenyl]-4-hydroxy-4-piperidyl]acetyl]-2,6-diazaspiro[3.3]heptan-6-yl]phenyl]-4-fluoro-1-oxo-isoindolin-2-yl]-N-thiazol-2-yl-acetamide]
[1]
  GI50: 24 nM
[2]; [6]
  mutant EGFR degraded in vivo: up to 85%
[2]; [7]
  mutant EGFR-L858R protein expression in tumors: potent EGFR degradation
[3]; [6]
  phospho-EGFR decrease in vivo: > 95%
[3]; [7]
  phospho-EGFR protein expression in tumors: phospho-EGFR inhibition
[4]
  EGFR-L858R degradation (western blot): efficiently degraded
[5]
  phospho-EGFR inhibition (western blot): inhibited

## Cn1nc(N2CCC(=O)NC2=O)c2ccc([C@H]3CCN(CC(=O)N4CC5(C4)CN(c4ccc(-c6cc(F)c7c(c6)C(=O)N(C(C(=O)Nc6nccs6)c6ncn8c6CCC8)C7)cc4)C5)CC3(F)F)cc21 (stereo partly drawn) [Compound 2, 2-(6,7-dihydro-5H-pyrrolo[1,2-c]imidazol-1-yl)-2-[6-[4-[2-[2-[(4R)-4-[3-(2,4-dioxohexahydropyrimidin-1-yl)-1-methyl-indazol-6-yl]-3,3-difluoro-1-piperidyl]acetyl]-2,6-diazaspiro[3.3]heptan-6-yl]phenyl]-4-fluoro-1-oxo-isoindolin-2-yl]-N-thiazol-2-yl-acetamide]
[1]
  GI50: 6 nM
